Assay results from patent US11230547B2, “Purine inhibitors of human phosphatidylinositol 3-kinase delta” (Merck Sharp & Dohme Corp., priority 2017, dated 2022).

Experiments:
PI3Kdelta = PI3Kdelta (Homo sapiens (Human), UniProt O00329); experiment: HTRF PI3K biochemical assay, delta isoform; conditions: 0.3 nM enzyme, 100 uM ATP, 5 uM PIP2, form screened per table
Procedure, shortened: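 PI3Kδ at 0.3 nM preincubated 15 min with compound, then reacted 1 h at room temperature with 100 uM ATP and 5 uM PIP2. PIP3 product detected by competitive HTRF displacing biotin-PIP3 from GST-GRP1 PH domain, so signal falls with activity. 10-point 3-fold dose response.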

PI3Kalpha = PI3Kalpha (Homo sapiens (Human), UniProt P42336); experiment: HTRF PI3K biochemical assay, alpha isoform (selectivity versus delta); conditions: relative ratio PI3K-alpha IC50 value / PI3K-delta IC50 value
Procedure, shortened: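 Recombinant human PI3Kα (0.5 nM) preincubated 15 min with compound, then reacted 1 h at room temperature with 100 uM ATP and 5 uM PIP2. PIP3 formation detected by HTRF competition with biotin-PIP3 for GST-GRP1 PH domain (Eu/APC, 665/620 nm); product lowers signal.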

Sequence of PI3Kdelta (O00329 whole entry, the tested form may be a part, canonical isoform): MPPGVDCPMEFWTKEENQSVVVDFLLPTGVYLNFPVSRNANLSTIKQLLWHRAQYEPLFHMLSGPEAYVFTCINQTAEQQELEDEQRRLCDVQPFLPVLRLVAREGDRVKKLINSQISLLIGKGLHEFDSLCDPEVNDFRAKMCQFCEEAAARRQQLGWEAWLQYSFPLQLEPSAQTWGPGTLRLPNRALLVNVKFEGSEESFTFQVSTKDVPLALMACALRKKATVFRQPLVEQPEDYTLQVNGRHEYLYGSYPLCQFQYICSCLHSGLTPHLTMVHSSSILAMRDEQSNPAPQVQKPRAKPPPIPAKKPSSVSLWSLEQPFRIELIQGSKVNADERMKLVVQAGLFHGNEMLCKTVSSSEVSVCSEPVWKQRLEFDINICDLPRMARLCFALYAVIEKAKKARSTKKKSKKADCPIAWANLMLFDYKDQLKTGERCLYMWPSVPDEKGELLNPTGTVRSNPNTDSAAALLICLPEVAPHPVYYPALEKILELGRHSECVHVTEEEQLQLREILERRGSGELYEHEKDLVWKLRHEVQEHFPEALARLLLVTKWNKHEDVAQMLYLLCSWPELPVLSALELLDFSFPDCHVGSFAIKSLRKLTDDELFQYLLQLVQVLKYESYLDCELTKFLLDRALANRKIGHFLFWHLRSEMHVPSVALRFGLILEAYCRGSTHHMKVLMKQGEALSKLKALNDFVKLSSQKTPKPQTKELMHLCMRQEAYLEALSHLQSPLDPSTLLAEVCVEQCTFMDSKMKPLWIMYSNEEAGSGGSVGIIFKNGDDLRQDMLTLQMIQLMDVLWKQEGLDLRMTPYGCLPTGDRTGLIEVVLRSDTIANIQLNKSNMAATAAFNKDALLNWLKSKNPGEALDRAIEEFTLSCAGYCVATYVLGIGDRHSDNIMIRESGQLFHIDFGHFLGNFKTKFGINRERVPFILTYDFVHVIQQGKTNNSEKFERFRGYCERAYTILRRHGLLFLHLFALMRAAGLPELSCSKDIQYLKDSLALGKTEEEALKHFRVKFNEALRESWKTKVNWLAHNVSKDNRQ
Sequence of PI3Kdelta (P27986 whole entry partner, the tested form may be a part, canonical isoform): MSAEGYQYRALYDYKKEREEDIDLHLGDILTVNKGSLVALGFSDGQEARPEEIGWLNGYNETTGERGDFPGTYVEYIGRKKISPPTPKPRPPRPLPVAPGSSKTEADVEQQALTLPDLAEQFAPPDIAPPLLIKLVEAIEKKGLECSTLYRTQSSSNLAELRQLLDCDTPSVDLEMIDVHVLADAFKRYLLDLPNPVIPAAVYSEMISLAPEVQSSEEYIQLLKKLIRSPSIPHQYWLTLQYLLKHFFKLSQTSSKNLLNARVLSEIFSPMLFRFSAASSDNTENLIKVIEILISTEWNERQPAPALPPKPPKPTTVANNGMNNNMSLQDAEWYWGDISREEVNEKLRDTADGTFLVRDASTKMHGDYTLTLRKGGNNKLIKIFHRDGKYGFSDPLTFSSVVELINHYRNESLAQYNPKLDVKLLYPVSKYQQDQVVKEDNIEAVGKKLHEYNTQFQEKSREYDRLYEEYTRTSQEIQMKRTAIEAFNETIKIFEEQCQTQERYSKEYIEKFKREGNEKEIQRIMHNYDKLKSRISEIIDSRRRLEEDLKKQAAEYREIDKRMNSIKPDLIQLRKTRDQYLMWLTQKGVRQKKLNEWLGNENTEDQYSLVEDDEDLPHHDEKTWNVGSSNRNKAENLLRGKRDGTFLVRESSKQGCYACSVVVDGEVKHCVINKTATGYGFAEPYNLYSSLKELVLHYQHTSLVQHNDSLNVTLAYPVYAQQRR
Sequence of PI3Kalpha (P42336 whole entry, the tested form may be a part, canonical isoform): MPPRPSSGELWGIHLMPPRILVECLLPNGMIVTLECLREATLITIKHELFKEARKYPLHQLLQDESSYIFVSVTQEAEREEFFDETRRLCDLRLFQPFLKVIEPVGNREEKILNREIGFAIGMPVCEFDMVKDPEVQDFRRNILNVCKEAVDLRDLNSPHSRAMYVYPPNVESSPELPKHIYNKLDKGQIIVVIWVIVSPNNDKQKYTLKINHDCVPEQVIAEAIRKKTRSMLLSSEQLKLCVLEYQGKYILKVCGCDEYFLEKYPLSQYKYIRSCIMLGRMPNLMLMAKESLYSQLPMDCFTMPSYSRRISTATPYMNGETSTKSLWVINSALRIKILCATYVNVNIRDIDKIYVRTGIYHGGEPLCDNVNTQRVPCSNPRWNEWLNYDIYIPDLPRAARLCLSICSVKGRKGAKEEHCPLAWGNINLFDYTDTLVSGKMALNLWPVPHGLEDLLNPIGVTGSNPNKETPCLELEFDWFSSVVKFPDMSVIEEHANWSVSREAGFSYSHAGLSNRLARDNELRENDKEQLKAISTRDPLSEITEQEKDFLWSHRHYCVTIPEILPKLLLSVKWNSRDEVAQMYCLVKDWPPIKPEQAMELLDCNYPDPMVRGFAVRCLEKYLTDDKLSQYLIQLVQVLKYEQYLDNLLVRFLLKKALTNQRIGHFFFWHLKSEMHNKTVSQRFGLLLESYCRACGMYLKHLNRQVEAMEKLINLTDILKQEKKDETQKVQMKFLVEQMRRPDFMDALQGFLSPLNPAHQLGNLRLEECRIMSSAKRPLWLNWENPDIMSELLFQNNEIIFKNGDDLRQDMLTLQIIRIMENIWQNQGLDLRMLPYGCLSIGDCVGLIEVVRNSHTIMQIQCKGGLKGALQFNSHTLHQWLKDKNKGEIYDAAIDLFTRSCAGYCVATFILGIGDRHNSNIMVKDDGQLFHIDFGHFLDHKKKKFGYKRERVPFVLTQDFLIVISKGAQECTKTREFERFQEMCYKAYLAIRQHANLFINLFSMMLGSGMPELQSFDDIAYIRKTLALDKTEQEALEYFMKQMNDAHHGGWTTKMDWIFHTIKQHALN
Sequence of PI3Kalpha (P27986 whole entry partner, the tested form may be a part, canonical isoform): as the sequence (P27986 whole entry partner, the tested form may be a part, canonical isoform) above

CC(C)c1cnc(-c2cnc(N3CCN(C(=O)C4CC4)[C@H](C)C3)nc2-c2cnn(C)c2)o1 [Compound 5-5, 2-[(3R)-4-(cyclopropylcarbonyl)-3-methylpiperazin-1-yl]-5-[5-(1-methylethyl)-1,3-oxazol-2-yl]-4-(1-methyl-1H-pyrazol-4-yl)pyrimidine]
IC50 (PI3Kdelta): 410 nM | Selectivity versus PI3Kalpha (PI3Kalpha): >10

CC(C)C[C@@H]1CN(c2nc(-c3cnn(C)c3)ncc2C#N)CCN1C(=O)C1CC1 [Compound 5-6, 4-[(3R)-4-(cyclopropylcarbonyl)-3-(2-methylpropyl)piperazin-1-yl]-2-(1-methyl-1H-pyrazol-4-yl)pyrimidine-5-carbonitrile]
IC50 (PI3Kdelta): 190 nM | Selectivity versus PI3Kalpha (PI3Kalpha): >10

Cn1cc(-c2ncc(C#N)c(N3CCN(C(=O)C4CC4)[C@H](CO)C3)n2)cn1 [Compound 5-7, 4-[(3S)-4-(cyclopropylcarbonyl)-3-(hydroxymethyl)piperazin-1-yl]-2-(1-methyl-1H-pyrazol-4-yl)pyrimidine-5-carbonitrile]
IC50 (PI3Kdelta): 760 nM | Selectivity versus PI3Kalpha (PI3Kalpha): >10

CC(C)C#Cc1cnc(N2CCN(C(=O)C3CC3)[C@H](C)C2)nc1-c1cnn(C)c1 [Compound 5-8, 2-[(3R)-4-(cyclopropylcarbonyl)-3-methylpiperazin-1-yl]-5-(3-methylbut-1-yn-1-yl)-4-(1-methyl-1H-pyrazol-4-yl)pyrimidine]
IC50 (PI3Kdelta): 12 nM | Selectivity versus PI3Kalpha (PI3Kalpha): >10

C#Cc1cnc(N2CCN(C(=O)C3CC3)[C@H](C)C2)nc1-c1cnn(C)c1 [Compound 5-9, 2-[(3R)-4-(cyclopropylcarbonyl)-3-methylpiperazin-1-yl]-5-ethynyl-4-(1-methyl-1H-pyrazol-4-yl)pyrimidine]
IC50 (PI3Kdelta): 50 nM | Selectivity versus PI3Kalpha (PI3Kalpha): >10

CSc1cnc(N2CCN(C(=O)C3CC3)[C@H](C)C2)nc1-c1cnn(C)c1 [Compound 5-10, 2-[(3R)-4-(cyclopropylcarbonyl)-3-methylpiperazin-1-yl]-4-(1-methyl-1H-pyrazol-4-yl)-5-(methylsulfanyl)pyrimidine]
IC50 (PI3Kdelta): 340 nM | Selectivity versus PI3Kalpha (PI3Kalpha): >10

C[C@@H]1CN(c2ncc(C(F)F)c(-c3cnn(C)c3)n2)CCN1C(=O)C1CC1 [Compound 5-11, 2-[(3R)-4-(cyclopropylcarbonyl)-3-methylpiperazin-1-yl]-5-(difluoromethyl)-4-(1-methyl-1H-pyrazol-4-yl)pyrimidine]
IC50 (PI3Kdelta): 370 nM | Selectivity versus PI3Kalpha (PI3Kalpha): >10

CCOC(=O)c1cnc(N2CCN(C(=O)C3CC3)[C@H](C)C2)nc1-c1cnn(C)c1 [Compound 5-12, ethyl 2-[(3R)-4-(cyclopropylcarbonyl)-3-methylpiperazin-1-yl]-4-(1-methyl-1H-pyrazol-4-yl)pyrimidine-5-carboxylate]
IC50 (PI3Kdelta): 180 nM | Selectivity versus PI3Kalpha (PI3Kalpha): >10

C[C@@H]1CN(c2nc(-c3cnn(C)c3)ncc2Cl)CCN1C(=O)C1CC1 [Compound 5-13, 5-chloro-4-[(3R)-4-(cyclopropylcarbonyl)-3-methylpiperazin-1-yl]-2-(1-methyl-1H-pyrazol-4-yl)pyrimidine]
IC50 (PI3Kdelta): 620 nM | Selectivity versus PI3Kalpha (PI3Kalpha): >10

C[C@@H]1CN(c2nc(-c3cnn(C)c3)nc(N)c2C#N)CCN1C(=O)C1CC1 [Compound 6-1, 4-amino-6-[(3R)-4-(cyclopropylcarbonyl)-3-methylpiperazin-1-yl]-2-(1-methyl-1H-pyrazol-4-yl)pyrimidine-5-carbonitrile]
IC50 (PI3Kdelta): 130 nM | Selectivity versus PI3Kalpha (PI3Kalpha): >10

CC(C)NC(=O)Nc1nc(-c2cnn(C)c2)nc(N2CCN(C(=O)C3CC3)[C@H](C)C2)c1C#N [Compound 6-2, 1-{5-cyano-6-[(3R)-4-(cyclopropylcarbonyl)-3-methylpiperazin-1-yl]-2-(1-methyl-1H-pyrazol-4-yl)pyrimidin-4-yl}-3-(1-methylethyl)urea]
IC50 (PI3Kdelta): 5.6 nM | Selectivity versus PI3Kalpha (PI3Kalpha): >10

CC(=O)Nc1nc(-c2cnn(C)c2)nc(N2CCN(C(=O)C3CC3)[C@H](C)C2)c1C#N [Compound 6-3, N-{5-cyano-6-[(3R)-4-(cyclopropylcarbonyl)-3-methylpiperazin-1-yl]-2-(1-methyl-1H-pyrazol-4-yl)pyrimidin-4-yl}acetamide]
IC50 (PI3Kdelta): 480 nM | Selectivity versus PI3Kalpha (PI3Kalpha): >10

C[C@@H]1CN(c2nc(-c3cnn(C)c3)nc(NCC(F)(F)F)c2C#N)CCN1C(=O)C1CC1 [Compound 6-4, 4-[(3R)-4-(cyclopropylcarbonyl)-3-methylpiperazin-1-yl]-2-(1-methyl-1H-pyrazol-4-yl)-6-[(2,2,2-trifluoroethyl)amino]pyrimidine-5-carbonitrile]
IC50 (PI3Kdelta): 8.3 nM | Selectivity versus PI3Kalpha (PI3Kalpha): >10

C[C@@H]1CN(c2nc(-c3cnn(C)c3)nc(Cl)c2C#N)CCN1C(=O)C1CC1 [Compound 6-5, 4-chloro-6-[(3R)-4-(cyclopropylcarbonyl)-3-methylpiperazin-1-yl]-2-(1-methyl-1H-pyrazol-4-yl)pyrimidine-5-carbonitrile]
IC50 (PI3Kdelta): 140 nM | Selectivity versus PI3Kalpha (PI3Kalpha): >10

CCc1nc(-c2cnn(C)c2)nc(N2CCN(C(=O)C3CC3)[C@H](C)C2)c1C#N [Compound 6-6, 4-[(3R)-4-(cyclopropylcarbonyl)-3-methylpiperazin-1-yl]-6-ethyl-2-(1-methyl-1H-pyrazol-4-yl)pyrimidine-5-carbonitrile]
IC50 (PI3Kdelta): 220 nM | Selectivity versus PI3Kalpha (PI3Kalpha): >10

C[C@@H]1CN(c2nc(-c3cnn(C)c3)nc(NC3CCC3)c2C#N)CCN1C(=O)C1CC1 [Compound 6-7, 4-(cyclobutylamino)-6-[(3R)-4-(cyclopropylcarbonyl)-3-methylpiperazin-1-yl]-2-(1-methyl-1H-pyrazol-4-yl)pyrimidine-5-carbonitrile]
IC50 (PI3Kdelta): 80 nM | Selectivity versus PI3Kalpha (PI3Kalpha): >10

C[C@@H]1CN(c2nc(-c3cnn(C)c3)nc(Nc3ccccc3)c2C#N)CCN1C(=O)C1CC1 [Compound 6-8, 4-[(3R)-4-(cyclopropylcarbonyl)-3-methylpiperazin-1-yl]-2-(1-methyl-1H-pyrazol-4-yl)-6-(phenylamino)pyrimidine-5-carbonitrile]
IC50 (PI3Kdelta): 19 nM | Selectivity versus PI3Kalpha (PI3Kalpha): >10

C[C@@H]1CN(c2nc(Cl)c(C#N)c(-c3cnn(C)c3)n2)CCN1C(=O)C1CC1 [Compound 6-9, 4-chloro-2-[(3R)-4-(cyclopropylcarbonyl)-3-methylpiperazin-1-yl]-6-(1-methyl-1H-pyrazol-4-yl)pyrimidine-5-carbonitrile]
IC50 (PI3Kdelta): 30 nM | Selectivity versus PI3Kalpha (PI3Kalpha): >10

Cc1nc(-c2cnn(C)c2)nc(N2CCN(C(=O)C3CC3)[C@H](C)C2)c1C#N [Compound 6-10, 4-[(3R)-4-(cyclopropylcarbonyl)-3-methylpiperazin-1-yl]-6-methyl-2-(1-methyl-1H-pyrazol-4-yl)pyrimidine-5-carbonitrile]
IC50 (PI3Kdelta): 180 nM | Selectivity versus PI3Kalpha (PI3Kalpha): >10

C[C@@H]1CN(c2nc(-c3cnn(C)c3CCC(F)(F)F)ncc2C#N)CCN1C(=O)C1CC1 [Compound 6-11, 4-[(3R)-4-(cyclopropylcarbonyl)-3-methylpiperazin-1-yl]-2-[1-methyl-5-(3,3,3-trifluoropropyl)-1H-pyrazol-4-yl]pyrimidine-5-carbonitrile]
IC50 (PI3Kdelta): 160 nM | Selectivity versus PI3Kalpha (PI3Kalpha): >10

COCCc1nc(N2CCN(C(=O)C3CC3)[C@H](C)C2)nc(-c2cnn(C)c2)c1C#N [Compound 6-12, 2-[(3R)-4-(cyclopropylcarbonyl)-3-methylpiperazin-1-yl]-4-(2-methoxyethyl)-6-(1-methyl-1H-pyrazol-4-yl)pyrimidine-5-carbonitrile]
IC50 (PI3Kdelta): 58 nM | Selectivity versus PI3Kalpha (PI3Kalpha): >10

C[C@@H]1CN(c2ncc(C#N)c(-c3cn(C)nc3C#N)n2)CCN1C(=O)C1CC1 [Compound 6-13, 4-(3-cyano-1-methyl-1H-pyrazol-4-yl)-2-[(3R)-4-(cyclopropylcarbonyl)-3-methylpiperazin-1-yl]pyrimidine-5-carbonitrile]
IC50 (PI3Kdelta): 180 nM | Selectivity versus PI3Kalpha (PI3Kalpha): >10

C[C@@H]1CN(c2ncc(C#N)c(-c3cn(C)nc3N)n2)CCN1C(=O)C1CC1 [Compound 6-14, 4-(3-amino-1-methyl-1H-pyrazol-4-yl)-2-[(3R)-4-(cyclopropylcarbonyl)-3-methylpiperazin-1-yl]pyrimidine-5-carbonitrile]
IC50 (PI3Kdelta): 21 nM | Selectivity versus PI3Kalpha (PI3Kalpha): >10

C[C@@H]1CN(c2nc(-c3cnn4c3CCC4)ncc2C#N)CCN1C(=O)C1CC1 [Compound 6-15, 4-[(3R)-4-(cyclopropylcarbonyl)-3-methylpiperazin-1-yl]-2-(5,6-dihydro-4H-pyrrolo[1,2-b]pyrazol-3-yl)pyrimidine-5-carbonitrile]
IC50 (PI3Kdelta): 83 nM | Selectivity versus PI3Kalpha (PI3Kalpha): >10

C[C@@H]1CN(c2nc(-c3cnn(C)c3)nc(NC(=O)NCC(F)(F)F)c2C#N)CCN1C(=O)C1CC1 [Compound 6-16, 1-{5-cyano-6-[(3R)-4-(cyclopropylcarbonyl)-3-methylpiperazin-1-yl]-2-(1-methyl-1H-pyrazol-4-yl)pyrimidin-4-yl}-3-(2,2,2-trifluoroethyl)urea]
IC50 (PI3Kdelta): 16 nM | Selectivity versus PI3Kalpha (PI3Kalpha): >10

C[C@@H]1CN(c2nc(-c3cnn(C)c3)nc(NC(=O)NC3CCC3)c2C#N)CCN1C(=O)C1CC1 [Compound 6-17, 1-{5-cyano-6-[(3R)-4-(cyclopropylcarbonyl)-3-methylpiperazin-1-yl]-2-(1-methyl-1H-pyrazol-4-yl)pyrimidin-4-yl}-3-cyclobutylurea]
IC50 (PI3Kdelta): 5 nM | Selectivity versus PI3Kalpha (PI3Kalpha): >10

C[C@@H]1CN(c2nc(-c3cnn(C)c3)nc(NCC3COC3)c2C#N)CCN1C(=O)C1CC1 [Compound 6-18, 4-[(3R)-4-(cyclopropylcarbonyl)-3-methylpiperazin-1-yl]-2-(1-methyl-1H-pyrazol-4-yl)-6-[(oxetan-3-ylmethyl)amino]pyrimidine-5-carbonitrile]
IC50 (PI3Kdelta): 49 nM | Selectivity versus PI3Kalpha (PI3Kalpha): >10
